From the SangsterLogP compilation

Experiment: method code SF-AS, from DOI: 10.1098/rspb.1976.0034, PMID: 5728
Conditions: pH 4.5

Structure (SMILES)	logD
CCc1ccc(S(N)(=O)=O)cc1	1.31
CCCc1ccc(S(N)(=O)=O)cc1	1.64
CCCCCCNC(=O)c1ccc(S(N)(=O)=O)cc1	2.05
CCCOC(=O)c1ccc(S(N)(=O)=O)cc1	1.75
CCCCCNC(=O)c1ccc(S(N)(=O)=O)cc1	1.51
CCCCOC(=O)c1ccc(S(N)(=O)=O)cc1	2.34
CCCCc1ccc(S(N)(=O)=O)cc1	2.45
CCCCCOC(=O)c1ccc(S(N)(=O)=O)cc1	2.71

Next, values leading:

logD	Structure (SMILES)
-0.31	CNC(=O)c1ccc(S(N)(=O)=O)cc1
0.51	CCCNC(=O)c1ccc(S(N)(=O)=O)cc1
1.17	CCOC(=O)c1ccc(S(N)(=O)=O)cc1
0.03	CCNC(=O)c1ccc(S(N)(=O)=O)cc1
1.05	CCCCNC(=O)c1ccc(S(N)(=O)=O)cc1
